Assay results: patent US20250241109A1, “Electron Transporting Self-Assembling Monolayer Compound for Use in Optoelectronic and/or Photoelectrochemical Devices and Manufacture Thereof” (Kaunas University of Technology, priority 2024, published 2025)
Where two headings read alike, the source gives them in different places.

Tests used:
Type in all cases: physicochemical
[1] = Cyclic voltammetry and optical band gap: energy levels in DMF and DCM solution; conditions: for EHOMO: EHOMO=ELUMO+Eg opt; for ELUMO: calculated from E vs Fc/Fc^+ with conversion factors; for λ: edge of electronic absorption spectrum in solution; for E vs Fc/Fc^+: glassy carbon electrode, 0.1 M tetrabutylammonium hexafluorophosphate, calibrated with ferrocene; for Eg^opt-sol: optical band gap, Eg opt=1240/λ
Experimental: CV measurements were carried out by a three-electrode assembly cell from Bio-Logic SP-150. The measurements were carried out at a glassy carbon electrode in DMF and DCM solutions containing 0.1 M tetrabutylammonium hexafluorophosphate as an electrolyte, Pt as the counter electrode and as the reference electrode. Each measurement was calibrated with ferrocene (Fc) and potentials calculated to Fc^+/Fc. Conversion factors: ferrocene in DCM vs SCE 0.46, DMF vs SCE 0.45, SCE vs SHE: 0.244, SHE vs vacuum: 4.43 (N. G. Connelly, W. E. Geiger, Chemical Reviews 1996, 96, 877; V. V. Pavlishchuk, A. W. Addison, Inorganica Chimica Acta 2000, 298, 97). The half-wave potential E1/2vs Fc was obtained as an average value between maxima of cathodic and anodic potentials: E1/2 vs Fc=1/2([…]). The optical band gaps Eg opt=1240/λ was estimated from the edges of electronic absorption spectra in DCM and DMF solutions. ELUMO was calculated from the equation ELUMO=(E vs Fc/Fc^++(solvent vs SCE)+0.244+4.43. EHOMO calculated from the equation EHOMO=ELUMO[…].

[2] = Solubility in organic solvents
[3] = Contact potential difference (CPD) surface mapping on ITO
Description: The surface mapping of contact potential difference (CPD) values of V1264 on ITO confirmed uniformity of SAM coverage. The rather homogenous pattern was proportional to the narrow work function (WF) fluctuation in a specific area (˜4.45 eV), overall indicating a good V1264 coverage on ITO.

[4] = UV/vis absorption and transmittance spectra
Description: In the n-i-p structure PSC light first posses through the ETL, thus it is important to minimize parasitic absorption of this layer.

[5] = Water contact angle of ITO/SAM surface; conditions: coated onto ITO, washed to remove unbound molecules
Description: It is noted that all the samples were washed with respective solvents to remove unbounded SAM molecules from the ITO substrate. […] The higher hydrophobicity of ITO/SAM substrate will affect the crystallization and morphology of perovskite film.^[21,22] The more hydrophobic surface (less wetting) of ITO/NDI-SAM surface can suppress the dragging force of perovskite inks, resulting in larger grain-size perovskite crystals, as indicated from top-view scanning electron microscopy (SEM) images in FIG. 6a,b.^[21,22] In addition, the tertbutyl groups of V1264 on the upper side can interact well with the perovskite layer, resulting in less pinholes or voids formed at ITO/V1264/perovskite interface, see FIG. 7.

[6] = Thermogravimetric analysis (TGA); conditions: scan rate 10 K min^−1, nitrogen atmosphere
Experimental: TGA was performed on a Q50 thermogravimetric analyzer (TA Instruments) at a scan rate of 10 K min^−1 in the nitrogen atmosphere.

[7] = CHCl3, organic solvent or mixture, read-out: Solubility in CHCl3
[8] = DCM, organic solvent or mixture, read-out: Solubility in DCM
[9] = organic solvent or mixture, methanol, sonicated, read-out: Solubility in Methanol
[10] = THF, organic solvent or mixture, read-out: Solubility in THF

Row | solubility ([2]; organic solvent or mixture, THF, sonicated, read-out: Solubility in THF) [µg/mL] | solubility ([2]; organic solvent or mixture, isopropanol, sonicated, read-out: Solubility in Isopropanol) [µg/mL] | solubility [2, 9] [µg/mL] | Compound | EHOMO [1] [eV] | ELUMO [1] [eV] | λ [1] [nm] | E vs Fc/Fc^+ [1] [V] | Eg^opt-sol [1] [eV] | solubility [2, 7] [µg/mL] | solubility [2, 8] [µg/mL] | Work function (WF) [3] [eV] | Absorption in the visible region ([4]; UV/vis, 10^−4 M anhydrous dichloromethane) | Optical losses (UV-Vis transmittance) of SAM on ITO surface ([4]; compared to bare ITO and ITO/SnO2 films) | Voltammogram behaviour in solution ([1]; during the scans) | solubility [2, 10] [µg/mL] | solubility ([2]; chlorobenzene, organic solvent or mixture, read-out: Solubility in Chlorobenzene) [µg/mL] | solubility ([2]; toluene, organic solvent or mixture, read-out: Solubility in Toluene) [µg/mL] | Water contact angle (surface hydrophobicity) [5] | 95% weight loss temperature [6] [°C]
1 | – | – | – | CC(C)(C)c1ccc(C(C)(C)C)c(N2C(=O)c3ccc4c5c(ccc(c35)C2=O)C(=O)N(c2ccc(P(=O)(O)O)cc2)C4=O)c1 [Compound V1635] | −6.98 | −3.84 | 394 | −1.28 | 3.14 | ≤ 15000 | ≤ 10000 | – | – | – | – | – | – | – | – | –
2 | ≤ 500 | ≤ 500 | ≤ 700 | O=C1c2cc(Br)c3c4c(cc(Br)c(c24)C(=O)N1CP(=O)(O)O)C(=O)N(CP(=O)(O)O)C3=O [Compound V1486] | −6.76 | −3.86 | 426 | −1.26 | 2.90 | – | – | – | – | – | – | – | – | – | – | –
3 | – | – | – | CC(C)(C)c1ccc(C(C)(C)C)c(N2C(=O)c3ccc4c5c(ccc(c35)C2=O)C(=O)N(CP(=O)(O)O)C4=O)c1 [Compound V1264, N-(2,5-di-tert-butyl-phenyl)-N′-(methyl)-1,4,5,8-naphthalene tetracarboxylic diimide phosphonic acid] | −6.97 | −3.81 | 392 | −1.34 | 3.16 | ≤ 7500 | ≤ 15000 | ~4.45 | no apparent absorption in the visible region | neglectable optical losses | reversible reduction waves | ≤ 6500 | ≤ 13000 | ≤ 800 | around 78.4 ° | 356
4 | – | – | – | CC(C)(C)c1ccc(C(C)(C)C)c(N2C(=O)c3ccc4c5c(ccc(c35)C2=O)C(=O)N(CCP(=O)(O)O)C4=O)c1 [Compound V1624, N-(2,5-di-tert-butyl-phenyl)-N′-(ethyl)-1,4,5,8-naphthalene tetracarboxylic diimide phosphonic acid] | −7.11 | −3.96 | 393 | −1.16 | 3.15 | ≤ 5000 | ≤ 7000 | – | – | – | – | ≤ 1000 | – | – | – | –
5 | – | – | ≤ 500 | O=C1c2ccc3c4c(ccc(c24)C(=O)N1CCP(=O)(O)O)C(=O)N(CCP(=O)(O)O)C3=O [Compound V1625, N, N′-bis(ethyl)-1,4,5,8-naphthalene tetracarboxylic diimide diphosphonic acid] | −6.91 | −3.79 | 397 | −1.32 | 3.12 | – | – | – | – | – | – | – | – | – | – | –
6 | – | – | ≤ 500 | O=C1c2ccc3c4c(ccc(c24)C(=O)N1CP(=O)(O)O)C(=O)N(CP(=O)(O)O)C3=O [Compound V1612, N, N′-bi(methyl)-1,4,5,8-naphthalene tetracarboxylic diimide diphosphonic acid] | −6.97 | −3.9 | 403 | −1.17 | 3.07 | – | – | – | – | – | – | – | – | – | – | –
